Experiment: Gamma irradiation dosing studies, naproxen assay and degradants
Format: physicochemical

SMILES: COc1ccc2cc([C@H](C)C(=O)O)ccc2c1 [Naproxen (API), naproxen]
- Naproxen Assay Average (Control (0 kGy)): 99.07 % w/w
- Naproxen Assay Relative to Control (Control (0 kGy)): 100.00
- Naproxen Assay Average (gamma dose 5 kGy): 96.38 % w/w
- Naproxen Assay Relative to Control (gamma dose 5 kGy): 97.28
- Naproxen Assay Average (gamma dose 10 kGy): 100.82 % w/w
- Naproxen Assay Relative to Control (gamma dose 10 kGy): 101.77
- Naproxen Assay Average (gamma dose 15 kGy): 100.44 % w/w
- Naproxen Assay Average (gamma dose 25 kGy): 100.08 % w/w
- Naproxen Assay Average (gamma dose 30 kGy): 100.47 % w/w
- Naproxen Assay Average (gamma dose 40 kGy): 99.14 % w/w
- Naproxen Assay Relative to Control (gamma dose 40 kGy): 100.07
- Naproxen Assay Average (gamma dose 50 kGy): 99.49 % w/w
- Naproxen Assay Relative to Control (gamma dose 50 kGy): 100.42

Reference: patent US20040105778A1, “Gamma irradiation of solid nanoparticulate active agents” (Elan Pharma International Limited, priority 2002, published 2004)
